{
  "source": "ChEMBL document CHEMBL4804283",
  "about": "“Stk19 inhibitors for treatment of cancer” (2020)",
  "key": {"[1]": {"molecular_target": "T1, Inactive serine/threonine-protein kinase 19 (Homo sapiens) (UniProt P49842)", "T1 sequence (whole entry)": "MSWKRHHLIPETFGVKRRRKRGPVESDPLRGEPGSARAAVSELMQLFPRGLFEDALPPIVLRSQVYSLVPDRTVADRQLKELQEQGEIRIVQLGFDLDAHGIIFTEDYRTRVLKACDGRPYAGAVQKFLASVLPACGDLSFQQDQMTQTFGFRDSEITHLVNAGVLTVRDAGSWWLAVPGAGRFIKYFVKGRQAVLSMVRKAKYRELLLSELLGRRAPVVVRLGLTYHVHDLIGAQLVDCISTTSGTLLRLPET", "assay": "Inhibition of recombinant human STK19 assessed as NRAS phosphorylation at 1-3 uM relative to control"}, "[2]": {"tested_on": "SK-MEL-2", "assay": "Inhibition of STK19 in nude mouse xenografted with human SK-MEL-2 cells assessed as decrease in NRAS phosphorylation at 25 mg/kg", "format": "functional, organism-based"}, "[3]": {"tested_on": "WM2032", "assay": "Induction of apoptosis in human WM2032 cells expressing NRAS Q61R and wild-type BRAF at 1-3 uM relative to control", "format": "functional, cell-based"}, "[4]": {"tested_on": "T2, Inactive serine/threonine-protein kinase 19 (Homo sapiens), P49842 [D89N]", "T2 sequence (whole entry)": "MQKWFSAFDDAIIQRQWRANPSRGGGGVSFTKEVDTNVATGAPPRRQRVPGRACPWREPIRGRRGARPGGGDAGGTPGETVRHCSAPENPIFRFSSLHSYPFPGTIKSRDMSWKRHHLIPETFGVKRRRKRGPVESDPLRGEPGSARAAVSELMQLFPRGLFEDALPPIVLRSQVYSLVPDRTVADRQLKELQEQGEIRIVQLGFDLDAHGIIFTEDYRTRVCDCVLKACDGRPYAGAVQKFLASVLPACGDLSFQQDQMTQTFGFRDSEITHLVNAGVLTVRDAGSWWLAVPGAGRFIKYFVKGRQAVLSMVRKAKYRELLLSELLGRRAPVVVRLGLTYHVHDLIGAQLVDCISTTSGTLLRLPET", "assay": "Inhibition of STK19 in STK19-depleted human primary melanocytes expressing STK19 D89N mutant at 1-3 uM assessed as NRAS phosphorylation relative to control", "format": "tissue-based", "settings": "Melanocyte"}, "[5]": {"assay": "Toxicity in C57BL/6J mouse assessed as brain histology at 25 mg/kg, administered twice daily for 20 days by H and E staining method", "format": "organism-based", "settings": "in vivo, 480 h"}, "[6]": {"assay": "Toxicity in C57BL/6J mouse assessed as effect on albumin level at 25 mg/kg, administered twice daily for 20 days", "format": "organism-based", "settings": "in vivo, 480 h"}, "[7]": {"molecular_target": "T1, Inactive serine/threonine-protein kinase 19 (Homo sapiens)", "assay": "Inhibition of STK19 in human A375 cells expressing wild-type NRAS and BRAF V600E mutant at 1-3 uM assessed as NRAS signaling relative to control", "format": "cell-based", "settings": "A-375"}, "[8]": {"tested_on": "SK-MEL-2", "assay": "Induction of apoptosis in human SK-MEL-2 cells expressing NRAS Q61R and wild-type BRAF at 1-3 uM relative to control", "format": "functional, cell-based"}, "[9]": {"molecular_target": "T1, Inactive serine/threonine-protein kinase 19 (Homo sapiens)", "assay": "Inhibition of STK19 in human UACC62 cells expressing wild-type NRAS and BRAF V600E mutant at 1-3 uM assessed as NRAS signaling relative to control", "format": "cell-based", "settings": "UACC-62"}, "[10]": {"molecular_target": "T1, Inactive serine/threonine-protein kinase 19 (Homo sapiens)", "assay": "Inhibition of STK19 in human SK-MEL-2 cells expressing NRAS Q61R and wild-type BRAF at 100 nM assessed as NRAS phosphorylation relative to control", "format": "cell-based"}, "[11]": {"tested_on": "SK-MEL-2", "assay": "Inhibition of G9a in nude mouse xenografted with human SK-MEL-2 cells assessed as decrease in H3K9 methylation at 50 mg/kg", "format": "functional, organism-based"}, "[12]": {"tested_on": "hTERT", "assay": "Inhibition of colony formation in hTERT/p53DD/CDK4 (R24C) immortal melanocytes expressing wild-type STK19 at 3 uM relative to control", "format": "functional", "settings": "Homo sapiens"}, "[13]": {"molecular_target": "T1, Inactive serine/threonine-protein kinase 19 (Homo sapiens)", "assay": "Inhibition of STK19 in human WM2032 cells expressing NRAS Q61R and wild-type BRAF at 1-3 uM assessed as NRAS signaling relative to control", "format": "cell-based"}, "[14]": {"tested_on": "SK-MEL-2", "assay": "Antitumor activity against human SK-MEL-2 cells xenografted in nude mouse assessed as inhibition of cancer cell proliferation at 25 mg/kg, administered for 21 days", "format": "functional, organism-based"}, "[15]": {"assay": "Toxicity in C57BL/6J mouse assessed as effect on alkaline phosphatase level at 25 mg/kg, administered twice daily for 20 days", "format": "organism-based", "settings": "in vivo, 480 h"}},
  "note": "Active and inactive are the calls of the source. The calls are words filed in the database; no cut-off is given here.",
  "data": [
    {"compound": "COc1cc2nc(NC3CC3)nc(NC3CCN(C(C)C)CC3)c2cc1OC.O=C(O)C(F)(F)F", "values": [
      {"measurement": "Activity", "setting": "[1]", "result": "Active"},
      {"measurement": "inhibition", "setting": "[2]", "result": "Active"},
      {"measurement": "Activity", "setting": "[3]", "result": "Active"},
      {"measurement": "inhibition", "setting": "[4]", "result": "Active"},
      {"measurement": "Activity", "setting": "[5]", "result": "Non-Toxic"},
      {"measurement": "Activity", "setting": "[6]", "result": "Non-Toxic"},
      {"measurement": "inhibition", "setting": "[7]", "result": "inactive"},
      {"measurement": "Activity", "setting": "[8]", "result": "Active"},
      {"measurement": "inhibition", "setting": "[9]", "result": "inactive"},
      {"measurement": "inhibition", "setting": "[10]", "result": "Active"},
      {"measurement": "inhibition", "setting": "[11]", "result": "inactive"},
      {"measurement": "Activity", "setting": "[12]", "result": "Active"},
      {"measurement": "inhibition", "setting": "[13]", "result": "Active"},
      {"measurement": "Activity", "setting": "[14]", "result": "Active"},
      {"measurement": "Activity", "setting": "[15]", "result": "Non-Toxic"}
    ]}
  ]
}
